# Key:
# [1] = test system: cellular outgrowth; test: Cell outgrowth experiments with PPG photoproduct; type: cell-based; conditions: photoproduct formed upon photocleavage of photonutlin
# Procedure: Cells were plated at equal amounts (1000 cells per well) in a 24-wells plate followed by indicated treatments −/+irradiation (400 nm for 5 min) 24 h later. Cells were cultured under normal cell culture conditions for 6 days to allow colony outgrowth. Plates were fixed using 99.8% ice-cold methanol (Honeywell) for 10 min at RT. After a 1 time wash in H2O, cells were incubated in 0.2% crystal violet (Sigma) in H2O for at least 3 h at RT to stain cellular outgrowth.
# [2] = test system: p53 in BJ-hTert, RKO (colon carcinoma), U2OS (osteosarcoma) cell lines; test: p53 protein levels (western blot) in additional cell lines; type: cell-based; conditions: U2OS (all cell lines tested), after light irradiation, 4 h
# Procedure: (§1) FIG. 3: Functional p53 induction upon λ=400 nm irradiation in PPG-idasanutlin treated cells, a) RPE-1 cells were treated with indicated compounds (all 10 μM final) and fixed 4 h after 5 min (−/+400 nm) irradiation. Anti-p53 staining indicates p53 protein expression in the nucleus. […] Error bars represent mean +sd, ****P<0.0001 (unpaired t-test), Dots represent individual cells, n>125 cells per condition combined from 2 independent experiments. c) Representative western blot showing p53 protein levels in cells 4 h after addition of DMSO or PPG-idasanutlin and irradiation for indicated time periods. Hsp90 is used as a loading control. d) Selective outgrowth disadvantage in RPE-1 cells 6 days after PPG-idasanutlin treatment +400 nm irradiation for 5 min. e) Representative Western blot showing p53 protein levels in three cell lines (U2OS, RKO, BJhTert) 4 h after indicated treatments. f) Selective outgrowth inhibition in indicated cell lines 6 days after PPG-idasanutlin treatment +400 nm irradiation for 5 min. In all the experiments <1% DMSO was used.
# RPE-1 cells were plated at equal density in 6-well plates followed by indicated treatments −/+irradiation (400 nm for 5 min) 24 h later. Cells were fixed and collected 4 h after treatment by wash out of the medium, single wash in 1× PBS followed by addition of laemmli buffer (4% SDS, 20% glycerol and 0.125 M Tris HCl). […]
# [3] = test system: p53 protein level in RPE-1 cells; test: p53 protein levels (western blot) in RPE-1 cells, dose-response; type: cell-based; conditions: increasing duration of 400 nm irradiation and varying doses, 4 h
# Procedure: as §1, with “used. […]” for “used.”
# To examine the level of control over the dose-response of idasanutlin (employing PPG-idasanutlin), p53 protein levels in RPE-1 cells were determined by immunostaining after both increasing duration of 400 nm light irradiation and varying doses of PPG-idasanutlin (FIG. 3.c).
# [4] = test system: p53 protein level in RPE-1 cells; test: Immunofluorescent staining of nuclear p53 protein in RPE-1 cells; type: cell-based; conditions: for nuclear p53 protein levels: 4 h after addition, regardless of irradiation with 400 nm light
# Procedure: as §1
# RPE-1 cells were plated on coverslips at equal density and treated with indicated drugs before −/+irradiation (400 nm for 5 min). For immune fluorescent staining, cells were fixed 4 h after irradiation by wash out of the medium, single wash in phosphate-buffered saline (1× PBS) and incubation in 3.7% formaldehyde for 5 min. Next, fixed cells were permeabilized with 0.2% TritonX in 1× PBS for 5 min before blocking in 3% […] (BSA) in 1× PBS supplemented with 0.1% Tween (PBST) for 1 h (all at room temperature (RT)). Cells were incubated overnight at 4° C. with primary antibody in PBST with 3% BSA, washed three times with PBST, and incubated with secondary antibody and DAPI in PBST with 3% BSA for 2 h at RT. After a final three time wash with PBST coverslips were mounted on microscopic analysis slides using ProLong Gold antifade reagent (Thermo Fisher). The following antibodies were used: anti-p53 (sc-126, Santa Cruz, 1/1000), phalloidin (A12380, Molecular Probes, 1/1000) and goat anti-mouse/Alexa. 488 (A11029, Molecular Probes, 1/1000).
# Next, the biological activity of PPG-idasanutlin was investigated. Initial studies aimed at confirming a difference in p53 activation upon λ=400 nm light exposure after addition of the protected idasanutlin derivative (PPG-idasanutlin). To that end, non-transformed, p53-proficient retinal pigment epithelial cells (RPE-1) were treated with either DMSO (control), nutlin-3, idasanutlin or PPG-idasanutlin, followed by −/+irradiation with 400 nm light (FIG. 3).
# [5] = Spontaneous hydrolysis in buffer; type: physicochemical; conditions: buffer at room temperature (data not shown)
# Procedure: (§2) Following the synthesis of PPG-idasanutlin as described in Example 1, its photochemical behavior under physiological conditions was investigated, UV-vis spectroscopy and UPLC-MS measurements were performed in aqueous buffer at pH=7.0. […] Moreover, no significant spontaneous hydrolysis of PPG-idasanutlin for >24 h in buffer at room temperature was observed (data not shown).
# [6] = test system: p53-venus in RPE-1 cells; test: Live-cell imaging of nuclear p53-venus signal after single-cell laser irradiation; type: cell-based
# Procedure: (§3) FIG. 5: Spatiotemporal control of PPG-idasanutlin. a) Schematic representation of microwell set-up for laser irradiation of individual RPE-1 cells to activate PPG-idasanutlin. Laser target area (represented. by red circle) for single pulse (0.1 sec irradiation at 5 um interspaced position) indicated with scale. Individual irradiated cells followed by measuring nuclear p53-venus levels (fluorescence) every 15 min for 3 h after laser irradiation. Approximately 200 cells in each microwell. b) Percentage of cells that divide within 8 h after indicated treatments. Mean±sem of three independent experiments. Error bars indicate 95% confidence intervals. c, d) p53-venus fluorescent signal in individual RPE-1 cells tracked over time after indicated treatments as represented in (a). Line-graphs represent mean of individual cells. n>42 cells per condition pooled from three independent experiments. ***p<0.005, ****p<0.0001 significance in 2-way anova interaction score.
# For live cell imaging, cells were grown in picovitro microwells covered by a silicon membrane^4 in Leibovitz's L-15 (Gibco) CO2-independent medium supplemented with ultraglutamine, penicillin/streptomycin and 10% fetal calf serum. Images for both fixed slides and live cell imaging were obtained using a Delta Vision Elite (applied precision) equipped with a 60× 1.6 NA or 10× 0.75 NA lens (Olympus) and cooled CoolSnap CCD camera. Directed laser irradiation was performed using a brief (0.1 s) pulse of a 405 nm laser on the Delta Vision Elite microscope equipped with a X4 laser module (Applied Precision). Image analysis was done using ImageJ software. […]
# Using RPE-1 cells that stably expressed a venus-tagged version of p53 (p53-venus), p53 protein accumulation could be tracked with high time-resolution in individual cells by live-cell microscopy. […] To determine the functionality of the high spatiotemporal control obtained in this set-up, cell cycle progression was monitored in single cells following laser activation of PPG-idasanutlin (photorelease of idasanutlin). […]
# [7] = Photochemical behavior (photocleavage) by UV-vis spectroscopy and UPLC-MS in aqueous buffer; type: physicochemical; conditions: λ=400 nm light, aqueous buffer pH=7.0
# Procedure: Thin Layer Chromatography (TLC) was performed using commercial Kieselgel 60, F254 silica gel plates with fluorescence-indicator UV254 (Merck, TLC silica gel 60 F254). For detection of components, UV light at λ=254 nm or λ=365 nm was used. Alternatively, oxidative staining using aqueous basic potassium permanganate solution (KMnO4) or aqueous acidic cerium phosphomolybdic acid solution (Seebach's stain) was used. Flash chromatography was performed on silica gel (Silicycle Siliaflash P60, […], 230-400 mesh). Drying of solutions was performed with MgSO4 and volatiles were removed with a rotary evaporator. Nuclear Magnetic Resonance spectra were measured with an Agilent Technologies 400-MR (400/54 Premium Shielded) spectrometer (400 MHz). All spectra were measured at room temperature (22-24° C.). Chemical shifts for ^1H- and ^13C-NMR measurements were determined relative to the residual solvent peaks in ppm (δH 7.26 for CHCl3, 2.50 for DMSO and 2.05 ppm for Acetone, δC 77.16 for CHCl3 and 39.52 for DMSO). The following abbreviations are used to indicate signal multiplicity: s, singlet; d, doublet; t, triplet; q, quartet; m, multiplet; brs, broad signal. All ^13C-NMR spectra are ^1H-broadband decoupled. High-resolution mass spectrometric measurements were performed on a Thermo scientific LTQ Orbitrap XL with ESI ionization. For spectroscopic measurements, solutions in Uvasol® grade solvents were measured in a 10 mm quartz cuvette. UV-Vis absorption spectra were recorded on an Agilent 8453 UV-Visible absorption Spectrophotometer.
# as §2
# [8] = test system: BJ-hTert, RKO (colon carcinoma), U2OS (osteosarcoma) cell lines; test: Clonogenic outgrowth of additional cell lines; type: cell-based; conditions: 6 days after treatment + 400 nm irradiation for 5 min
# Procedure: as §1
# (§4) Cells were plated at equal amounts (1000 cells per well) in a 24-wells plate followed by indicated treatments −/+irradiation (400 nm for 5 min) 24 h later. Cells were cultured under normal cell culture conditions for 6 days to allow colony outgrowth. Plates were fixed using 99.8% ice-cold methanol (Honeywell) for 10 min at RT. […]
# [9] = test system: RPE-1 cells; test: Clonogenic outgrowth of RPE-1 cells; type: cell-based; conditions: 6 days
# Procedure: as §1, §4
# [10] = test system: RPE-1 p53-venus cells; test: Live-cell imaging of cell division after single-cell laser irradiation; type: cell-based; conditions: RPE-1 p53-venus cells irradiated with 405 nm laser (0.1 s pulse) after treatment
# Procedure: as §3, with “score. […]” for “score.”
# Using RPE-1 cells that stably expressed a venus-tagged version of p53 (p53-venus), p53 protein accumulation could be tracked with high time-resolution in individual cells by live-cell microscopy. […] To determine the functionality of the high spatiotemporal control obtained in this set-up, cell cycle progression was monitored in single cells following laser activation of PPG-idasanutlin (photorelease of idasanutlin).
smiles,measurement,setting,value
"CCN(CC)c1ccc2c(C(C)O)cc(=O)oc2c1 (stereo not drawn) [PPG 6, 7-(diethylamino)-4-(1-hydroxyethyl)-2H-chromen-2-one]",cellular outgrowth,[1],does not perturb
"CCN(CC)c1ccc2c(C(C)OC(=O)c3ccc(NC(=O)[C@@H]4N[C@@H](CC(C)(C)C)[C@](C#N)(c5ccc(Cl)cc5F)[C@H]4c4cccc(Cl)c4F)c(OC)c3)cc(=O)oc2c1 (stereo partly drawn) [PPG-idasanutlin, 1-(7-(diethylamino)-2-oxo-2H-chromen-4-yl)ethyl 4-((2R,3S,4R,5S)-3-(3-chloro-2-fluorophenyl)-4-(4-chloro-2-fluorophenyl)-4-cyano-5-neopentylpyrrolidine-2-carboxamido)-3-methoxybenzoate]",stabilization of p53,[2],Selective stabilization
same,accumulation of p53 protein,[3],clear dose-response dependent accumulation
same,p53 protein level,"[4]; 10 μM, irradiated with 400 nm light (5 min), fixed 4 h after",significant increase
same,p53 stabilization,[4]; without 400 nm irradiation,no functional effect
same,time without significant spontaneous hydrolysis,[5],> 24 h
same,nuclear p53-venus signal,[6]; neighbouring cells not irradiated by the 405 nm laser,significantly lesser extent
same,nuclear p53-venus signal,[6]; non-irradiated cells from adjacent wells at micrometer distance,completely absent
same,nuclear p53-venus signal,"[6]; single cells irradiated with 405 nm laser, 15 min intervals",selective stabilization
same,irradiation time for major photorelease of idasanutlin,[7],≤ 5 min
same,products observed upon photodeprotection,[7],solely the formation of idasanutlin and hydroxycoumarin
same,quantum yield of photocleavage,[7],0.1%
same,cellular outgrowth,[8],dramatic reduction
same,colony outgrowth,[9]; after irradiation with 400 nm for 5 min,selectively blocked
same,colony outgrowth (growth inhibition),[9]; without 400 nm irradiation,did not show any growth inhibition
same,percentage of cells that divide within 8 h,[10],strongly drops
"COc1cc(C(=O)O)ccc1NC(=O)[C@@H]1N[C@@H](CC(C)(C)C)[C@](C#N)(c2ccc(Cl)cc2F)[C@H]1c1cccc(Cl)c1F [idasanutlin, 4-((2R,3S,4R,5S)-3-(3-chloro-2-fluorophenyl)-4-(4-chloro-2-fluorophenyl)-4-cyano-5-neopentylpyrrolidine-2-carboxamido)-3-methoxybenzoic acid, reference compound]",nuclear p53 protein levels,[4]; 10 μM,significant increase
"COc1ccc(C2=N[C@@H](c3ccc(Cl)cc3)[C@@H](c3ccc(Cl)cc3)N2C(=O)N2CCNC(=O)C2)c(OC(C)C)c1 [nutlin-3, reference compound]",nuclear p53 protein levels,[4]; 10 μM,significant increase

# Source: patent publication US11981664B2, “Photoresponsive nutlin derivatives and uses thereof” (Rijksuniversiteit Groningen, priority 2018, dated 2024)
